Experimental data: patent publication US20060188959A1, “Crystal structure of worm NitFhit reveals that a Nit tetramer binds tow Fhit dimers” (Thomas Jefferson University, priority 2000, published 2006)
Where two headings read alike, the source gives them in different places.

Assays:
Format in all cases: biochemical, C. elegans
[1] = molecular target: T1, Fhit active site of NitFhit (Caenorhabditis elegans, UniProt O76463); assay: Nonlabeled compounds as competitive inhibitors of ApppBODIPY hydrolysis
T1 construct: generated an NdeI site at the initiator codon and an XhoI site 3′ of the stop codon; made in house; host or cells: E. coli strain ER2566
T1 sequence (O76463 1-440): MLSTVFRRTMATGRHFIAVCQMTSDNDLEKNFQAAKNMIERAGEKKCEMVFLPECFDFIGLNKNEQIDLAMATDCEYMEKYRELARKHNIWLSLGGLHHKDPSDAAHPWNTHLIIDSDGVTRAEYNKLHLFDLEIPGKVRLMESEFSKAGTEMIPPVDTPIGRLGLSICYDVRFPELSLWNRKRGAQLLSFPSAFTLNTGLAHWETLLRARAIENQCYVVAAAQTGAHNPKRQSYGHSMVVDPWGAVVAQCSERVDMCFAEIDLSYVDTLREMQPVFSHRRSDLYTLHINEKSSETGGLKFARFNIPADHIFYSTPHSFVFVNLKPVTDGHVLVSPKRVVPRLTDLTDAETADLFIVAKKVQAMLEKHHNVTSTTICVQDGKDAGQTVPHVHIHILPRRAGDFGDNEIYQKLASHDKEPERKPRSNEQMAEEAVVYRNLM

[2] = molecular target: T1, Fhit active site of NitFhit; assay: ApppBODIPY substrate decay assay of the Fhit active site of NitFhit; settings: ApppBODIPY as substrate; % of the activity of human Fhit
[3] = molecular target: T1, Fhit active site of NitFhit; assay: GpppBODIPY initial rate assay of the Fhit active site of NitFhit
[4] = titration of nonlabeled compound into 1.5 μM ApppBODIPY assays, five competitor concentrations, read-out: Kl
[5] = initial rates, GpppBODIPY titrated 40 μM to 2.5 μM, 0.5 pmol enzyme

Row | Ki [1, 4] | Compound | Ki [1] | further results
1 |  | Nc1ncnc2c1ncn2[C@@H]1O[C@H](COP(=O)(O)O)[C@@H](O)[C@H]1O [AMP] | 153 ± 13 µM | 
2 |  | Nc1ncnc2c1ncn2[C@@H]1O[C@H](COP(O)(=S)OP(=O)(O)OP(=O)(O)O)[C@@H](O)[C@H]1O (some centres unmarked) [ATP-αS] | 287 ± 73 µM | 
3 | 4.2 ± 0.4 µM | Nc1ncnc2c1ncn2[C@@H]1O[C@H](COP(=O)(O)OP(=O)(O)OP(=O)(O)OC[C@H]2O[C@@H](n3cnc4c(N)ncnc43)[C@H](O)[C@@H]2O)[C@@H](O)[C@H]1O [ApppA] |  | 
4 | 2.7 ± 0.3 µM | Nc1ncnc2c1ncn2[C@@H]1O[C@H](COP(=O)(O)OP(=O)(O)OP(=O)(O)OP(=O)(O)OC[C@H]2O[C@@H](n3cnc4c(N)ncnc43)[C@H](O)[C@@H]2O)[C@@H](O)[C@H]1O [AppppA] |  | 
5 | 4.5 ± 0.7 µM | Nc1ncnc2c1ncn2[C@@H]1O[C@H](COP(=O)(O)OP(=O)(O)OP(=O)(O)OP(=O)(O)OP(=O)(O)OC[C@H]2O[C@@H](n3cnc4c(N)ncnc43)[C@H](O)[C@@H]2O)[C@@H](O)[C@H]1O [ApppppA] |  | 
6 |  | Nc1nc(O)c2ncn([C@@H]3O[C@H](COP(=O)(S)OP(=O)(O)OP(=O)(O)O)[C@@H](O)[C@H]3O)c2n1 (some centres unmarked) [GTP-αS] | 481 ± 27 µM | 
7 |  | O=P(O)(O)OP(=O)(O)O [pyrophosphate] | 78 ± 12 µM | 
8 |  | Appp-S-(4-4-fluoro-5,7-dimethyl-4-bora-3a,4a-diaza-s-indacine-3-yl) [ApppBODIPY] |  | activity of worm NitFhit relative to human Fhit on the substrate (kcat/Km) [2]: 22%
9 |  | Gppp-S-(4-4-fluoro-5,7-dimethyl-4-bora-3a,4a-diaza-s-indacine-3-yl) [GpppBODIPY] |  | activity of worm NitFhit relative to human Fhit on the substrate (kcat/Km) ([3]; GpppBODIPY as substrate, % of the activity of human Fhit): 109%; Km [3, 5]: 3.7 µM; kcat [3, 5]: 2.4 s⁻¹
